# Laboratory results reported in patent US20220143045A1, “PROGESTERONE RECEPTOR ANTAGONIST DOSAGE FORM” (BAYER PHARMA AKTIENGESELLSCHAFT, priority 2013, published 2022).
# Several values for one entry are separate records, joined by “and”; a condition that tells them apart may be missing. Identical values can stand only once.
# Experiments:
# Assay type in all cases: in vivo, human
# healthy female subjects [1] = experiment: Endometrial thickness by transvaginal ultrasound during treatment; details: 2 mg, 84 days, versus other dosages (FIG. 2)
# Procedure: (§1) As described in example 2.
# The endometrial thickness was measured in the medio-sagittal section as double-layer in millimeters using transvaginal ultrasound.
# healthy female subjects [2] = experiment: Return of bleeding after end of treatment (84 days); details: for Number of days until first bleeding after end of treatment (mean ± SD) / Number of days until first bleeding after end of treatment (min − max): PPS
# From the text: as §1
# The first day of bleeding after the end of the treatment was marked.
# healthy female subjects [3] = experiment: Ovulation inhibition: follicle size, estradiol (E2), progesterone (P)
# From the text: Protocol: Randomized Study population of healthy female subjects as described in example 2 above.
# Blood samples were obtained from healthy female subjects for the determination of Estradiol (E2), Progesterone (P), luteinizing hormone (LH) and follicle stimulating hormone (FSH) in serum and taken at the same time points as listed below during the pre-treatment cycle, the treatment and follow-up cycle. Transvaginal ultrasound (TVU) was used to monitor ovarian follicular growth during pretreatment (days 9 and 21), treatment (days 7, 14, 21, 28, 35, 42, 49, 56, 63, 70, 77, 84) and follow-up cycle (days 9 and 21).
# healthy female subjects [4] = experiment: Dose-effect of 84 days treatment: bleeding pattern (non-bleeding rate), daily self-assessment
# From the text: • 1. Healthy female subjects, sterilized by tubal ligation • 2. Age at screening: 18-45 years • 3. Body mass index (BMI) at screening: ≥18 and ≤32 kg/m^2 • 4. At least 3 consecutive regular menstrual cycles with a cycle length of 24-35 days before first screening examination according to the subject's history • 5. Absence of clinically relevant abnormal findings in the pre-treatment endometrial biopsy • 6. Adequate venous access (frequent blood sampling)
# The subject had to start the intake of the study drugs on the first or second day of menstrual bleeding after the pre-treatment cycle. The pre-treatment cycle started on the first day of the subject's menstrual bleeding after screening examinations had shown that the subject was eligible for further participation. After the pre-treatments cycle treatment was started. The treatment period started with the first and ended with the last intake of compound 1. For each intake day the subject received one bottle containing 4 tablets. The number of tablets taken and the intake time had to be documented in the diary.
# The evaluation of bleeding pattern was based on a daily self-assessment of the bleeding intensity by the subject. These assessments were categorized as defined below. The subjects were provided with an explanation of the categories in local language, and were asked to document the bleeding intensity in their diaries accordingly (one entry per day).
# Administration of compound 1 occurred during 84 days (multiple doses administration).
# [5] = 0.1 mg, n = 11, treatment period
# [6] = 0.1 mg, n = 11, treatment period, (third category)
# [7] = 0.5 mg, n = 11, treatment period
# [8] = 0.5 mg, n = 11, treatment period, (third category)
# [9] = 1 mg, n = 12, treatment period, (third category)
# [10] = 2 mg, n = 12, treatment period, (third category)
# [11] = 5 mg, n = 11, treatment period, (third category)
# [12] = 0.5 mg once daily per os, 84 days
smiles,measurement,setting,value
"C[C@]12C[C@H](c3ccc(S(C)(=O)=O)cc3)C3=C4CCC(=O)C=C4CC[C@H]3[C@@H]1CC[C@@]2(O)C(F)(F)C(F)(F)F [compound 1, (11β,17β)-17-Hydroxy-11-[4-(methylsulphonyl)phenyl]-17-(pentafluoroethyl)estra-4,9-dien-3-one]",maximum thickness of the endometrium within treatment epoch,healthy female subjects [1],lower maximum thickness of the endometrium compared to other dosages
same,Number of days until first bleeding after end of treatment (mean ± SD),"healthy female subjects [2]; 0.1 mg, n = 11",12.2 ± 9.9 days
same,Number of days until first bleeding after end of treatment (min − max),"healthy female subjects [2]; 0.1 mg, n = 11",(3 − 35) days
same,Number of days until first bleeding after end of treatment (mean ± SD),"healthy female subjects [2]; 0.5 mg, n = 11",14.8 ± 10.2 days
same,Number of days until first bleeding after end of treatment (min − max),"healthy female subjects [2]; 0.5 mg, n = 11",( 1 − 28) days
same,Number of days until first bleeding after end of treatment (mean ± SD),"healthy female subjects [2]; 1 mg, n = 10",20.3 ± 6.2 days
same,Number of days until first bleeding after end of treatment (min − max),"healthy female subjects [2]; 1 mg, n = 10",(8 − 28) days
same,Number of days until first bleeding after end of treatment (mean ± SD),"healthy female subjects [2]; 2 mg, n = 12",25 days and 25.8 ± 11.1 days
same,Number of days until first bleeding after end of treatment (min − max),"healthy female subjects [2]; 2 mg, n = 12",(9 − 52) days
same,"delayed return of bleeding after treatment, one subject","healthy female subjects [2]; 2 mg, single subject",about 52 days
same,Number of days until first bleeding after end of treatment (mean ± SD),"healthy female subjects [2]; 5 mg, n = 11",20.9 ± 10.9 days
same,Number of days until first bleeding after end of treatment (min − max),"healthy female subjects [2]; 5 mg, n = 11",(1 − 38) days
same,number of subjects with Follicle size ≤ 13 mm,healthy female subjects [3]; [5],1
same,percentage of subjects with Follicle size ≤ 13 mm,healthy female subjects [3]; [5],9%
same,number of subjects with Follicle size > 13 mm + Estradiol > 27.2 pg/mL + Progesterone < 1.57 μg/L,healthy female subjects [3]; [6],10
same,percentage of subjects with Follicle size > 13 mm + Estradiol > 27.2 pg/mL + Progesterone < 1.57 μg/L,healthy female subjects [3]; [6],91%
same,number of subjects with Follicle size > 13 mm + Estradiol > 27.2 pg/mL + Progesterone < 1.57 μg/L,healthy female subjects [3]; [7],6
same,percentage of subjects with Follicle size > 13 mm + Estradiol > 27.2 pg/mL + Progesterone < 1.57 μg/L,healthy female subjects [3]; [7],55%
same,number of subjects with Follicle size > 13 mm + Estradiol > 27.2 pg/mL + Progesterone < 1.57 μg/L,healthy female subjects [3]; [8],5
same,percentage of subjects with Follicle size > 13 mm + Estradiol > 27.2 pg/mL + Progesterone < 1.57 μg/L,healthy female subjects [3]; [8],45%
same,number of subjects with Follicle size > 13 mm + Estradiol > 27.2 pg/mL + Progesterone < 1.57 μg/L,"healthy female subjects [3]; 1 mg, n = 12, treatment period",9
same,number of subjects with Follicle size ≤ 13 mm,"healthy female subjects [3]; 1 mg, n = 12, treatment period",1
same,percentage of subjects with Follicle size > 13 mm + Estradiol > 27.2 pg/mL + Progesterone < 1.57 μg/L,"healthy female subjects [3]; 1 mg, n = 12, treatment period",75%
same,percentage of subjects with Follicle size ≤ 13 mm,"healthy female subjects [3]; 1 mg, n = 12, treatment period",8%
same,number of subjects with Follicle size > 13 mm + Estradiol > 27.2 pg/mL + Progesterone < 1.57 μg/L,healthy female subjects [3]; [9],2
same,percentage of subjects with Follicle size > 13 mm + Estradiol > 27.2 pg/mL + Progesterone < 1.57 μg/L,healthy female subjects [3]; [9],17%
same,number of subjects with Follicle size > 13 mm + Estradiol > 27.2 pg/mL + Progesterone < 1.57 μg/L,"healthy female subjects [3]; 2 mg, n = 12, treatment period",11
same,percentage of subjects with Follicle size > 13 mm + Estradiol > 27.2 pg/mL + Progesterone < 1.57 μg/L,"healthy female subjects [3]; 2 mg, n = 12, treatment period",92%
same,number of subjects with Follicle size > 13 mm + Estradiol > 27.2 pg/mL + Progesterone < 1.57 μg/L,healthy female subjects [3]; [10],1
same,percentage of subjects with Follicle size > 13 mm + Estradiol > 27.2 pg/mL + Progesterone < 1.57 μg/L,healthy female subjects [3]; [10],8%
same,number of subjects with Follicle size > 13 mm + Estradiol > 27.2 pg/mL + Progesterone < 1.57 μg/L,"healthy female subjects [3]; 5 mg, n = 11, treatment period",9
same,number of subjects with Follicle size ≤ 13 mm,"healthy female subjects [3]; 5 mg, n = 11, treatment period",1
same,percentage of subjects with Follicle size > 13 mm + Estradiol > 27.2 pg/mL + Progesterone < 1.57 μg/L,"healthy female subjects [3]; 5 mg, n = 11, treatment period",82%
same,percentage of subjects with Follicle size ≤ 13 mm,"healthy female subjects [3]; 5 mg, n = 11, treatment period",9%
same,number of subjects with Follicle size > 13 mm + Estradiol > 27.2 pg/mL + Progesterone < 1.57 μg/L,healthy female subjects [3]; [11],1
same,percentage of subjects with Follicle size > 13 mm + Estradiol > 27.2 pg/mL + Progesterone < 1.57 μg/L,healthy female subjects [3]; [11],9%
same,ovulation during treatment (progesterone value <1.57 μg/L),"healthy female subjects [3]; dosages ≥0.5 mg, 84 days",No ovulation occurred in most of the subjects
same,number of subjects with no further bleeding during the treatment period (out of 11),healthy female subjects [4]; [12],3
same,subjects with no further bleeding during the treatment period,healthy female subjects [4]; [12],27%
same,number of days of bleeding during the treatment period,"healthy female subjects [4]; 0.1-5 mg once daily per os, 84 days",marked and dose-dependent reduction
same,dosage at which 50% of dose-dependent reduction of bleeding is observed,"healthy female subjects [4]; 84 days treatment, posterior of non-bleeding rate (FIG. 1)",0.7 mg
same,saturation of non-bleeding rate,"healthy female subjects [4]; from 2 mg up to 5 mg, 84 days",around 95%
same,amenorrhea (non-bleeding),"healthy female subjects [4]; healthy subjects, dosage of 2 mg",92.5%
